Columns and labels:
[1] = γ-T3 level in tumors and organs by HPLC; type: in vivo, BALB/c athymic nude mice; details: 50 mg/kg/day γ-T3 for 10 days
Description: Nude mice bearing similar tumor sizes of about 100 mm^3 (after 2 weeks inoculation) were selected and randomly divided into three groups (n=5 per group); control (DMSO as vehicle), γ-T3 (50 mg/kg/d) and combination treatment of γ-T3 and Docetaxel (50 mg of γ-T3/kg/d and 7.5 mg of Docetaxel/kg/wk). The mice were weighed as daily basic and the tumors were measured using a Digital Carbon Fiber Caliper (Fisher scientific, Pittsburgh, Pa.) at the same time. The tumor volume was calculated as 4/3*π*(mean diameter/2)^3. The mice were dosed 5 times a week for 2 weeks. After 10 days of treatment, the mice were euthanized by CO2 inhalation. Blood samples were collected through cardiac bleeding using 25-gauge needle. Blood samples were incubated at room temperature for 30 min, followed by centrifugation at 4400 rpm, 4° C. for 30 min. Serum, as the supernatant, was separated from plasma and stored at −80° C. Tumor, liver, kidney, spleen, lung and heart were harvested. Part of the tumors was fixed in 10% neutral buffered formalin solution. […]
4.1.7 Determination of γ-Tocotrienol level by high performance liquid chromatography—A normal phase of HPLC method was performed as a modification of procedures known in the art. […] The absorbance of γ-T3 was monitored with a […] set at an excitation wavelength of 290 nm and emission wavelength of 360 nm.

C32 cells = assay: Flow cytometry and western blotting, C32 cells; type: cell-based
Description: (§1) 1.1.3 Flow cytometry—Cell cycle distribution was examined using flow cytometry. Briefly, cells were harvested by trypsinization, fixed in 70% ethanol at 4° C. overnight, and then resuspended in PBS. After incubation at 4° C. for overnight, 2×10^6 cells were incubated with in 20 μg/ml propidium iodide (PI) and 2 mg RNaseA for 15 minutes at 37° C. Cells were then examined by BD SLRII cytometer and the results were analyzed using ModFit software (Becton Dickinson, Mountain View, Calif.). Data were expressed as the percentage of cell cycle distribution in the entire population.
(§2) 1.1.5 Western blotting—Detailed protocols have been described previously and are known in the art. Briefly, cell lysates were prepared by suspending cell pellets in lysis buffer [50 mmol/l Tris-HCl (pH 8.0), 150 mmol/l NaCl, 1% NP40, 0.5% deoxycholate, 0.1% SDS, 1 mg/ml aprotinin, 1 μg/ml leupeptin and 1 mmol/l phenylmethylsulfonyl fluoride]. For nuclear protein extraction, NucBuster™ protein extraction kit was used. Protein concentration was measured using the DC Protein Assay kit (Bio-Rad, Hercules, Calif.). Equal amount of protein (30 μg) was loaded onto a 10% SDS polyacrylamide gel for electrophoresis and then transferred onto a polyvinylidene difluoride membrane (Amersham, Piscataway, N.J.). The membrane was then incubated with primary antibodies for 1 hr at room temperature against E-cadherin (BD Biosciences, Bedford, Mass.), α-catenin, β-catenin, γ-catenin, Id-1, Id-3, EGFR, phosphor-c-jun, phosphor-ATF2, cleaved PARP, vimentin, α-smooth muscle actin, twist (Santa Cruz Biotechnology, Calif.), phosphor-IkB-alpha (Ser32/36), phosphor-IKK alpha (Seri 80)/IKK beta (Ser181), phosphor-SAPK/JNK (Thr183/Tyr185) G9, SAPK/JNK, NF-kB p65 (5A5) (Cell Signaling Technology Inc, Beverly, Mass.), Snail (Abcam). After incubation with appropriate secondary antibodies, signals were visualized by ECL western blotting system (Amersham, Piscataway, N.J.). Expression of β-actin and histone H1 were assessed as an internal loading control for total cell lysate and nuclear protein lysate respectively.

PC-3 cells = assay: Flow cytometry and western blotting, PC-3 cells; type: cell-based, human
Description: as §1, §2
2.1.4 Flow cytometry was carried out as described above under item 1.1.3. Matrigel-invasion assay was carried out as described above under item 1.1.4. Western blotting was carried out as described above under item 1.1.5.

For `CC(C)=CCC/C(C)=C/CC/C(C)=C/CCC1(C)CCc2cc(O)c(C)c(C)c2O1` (centres unmarked) [γ-T3, 7,8-dimethyltocotrienol], the “tumor γ-T3 amount relative to other internal organs” value [1] was “at least two-fold”, the “γ-T3 concentration within the tumors” value [1] was 0.15±0.03 mg of γ-T3 per gram of wet weight and the JNK phosphorylation (C32 cells; C32) was “dosage-dependent increase in JNK phosphorylation activities”. The “NF-κB p65 activity (nuclear translocation)” value (C32 cells; C32) was “suppressed constitutive NF-κB p65 activity in a dose-dependent manner”, the “activation of pro-apoptotic proteins (cleaved products)” value (C32 cells; C32, different γ-T3 dosage, 24-hr) was “activation of procaspase 3, 7, 9 as well as PARP” and the “Id-1 and Id-3 expression levels (EGF-R similar)” value (C32 cells; C32, increasing dosages) was “significantly suppressed to almost undetectable level”. The “sub-G1 cell population (flow cytometry)” value (C32 cells; melanoma cells, γ-T3 at IC50, 24-hr) was “induction of sub-G1 cell population”, the “E-cadherin and γ-catenin protein expression” value (PC-3 cells; PC-3) was “up-regulated” and the JNK phosphorylation (PC-3 cells; PC-3) was “dosage- and time-dependent increase in JNK phosphorylation activities”. The “NF-κB p65 activity (nuclear translocation)” value (PC-3 cells; PC-3) was “suppressed constitutive NF-κB p65 activity in a dose-dependent and time-dependent manner”, the “Snail and mesenchymal markers (vimentin, α-SMA and twist) expression” value (PC-3 cells; PC-3, 24 hrs) was “down-regulated” and the “activation of pro-apoptotic proteins (cleaved products)” value (PC-3 cells; PC-3, 24 hrs) was “activation of procaspase 3, 7, 8, 9 as well as PARP”. The “EGF-R expression (Id-1 and Id-3 similar)” value (PC-3 cells; PC-3, increasing dosages) was “significantly suppressed to almost undetectable level” and the “sub-G1 cell population (flow cytometry)” value (PC-3 cells; γ-T3 IC50-95, 24 hrs) was “induction of sub-G1 cell population”.
